Source: US10889560B2, “4-amino-2-pyrido-bicyclic pyrimidines and use thereof as topoisomerase II inhibitors” (FONDAZIONE ISTITUTO ITALIANO DI TECNOLOGIA, priority 2016, dated 2021)
Converted amounts (≈) assume the structure as drawn.

Experiments:
[1] = target: human type II topoisomerase (topo II); assay: Topo II inhibitory activity; type: biochemical
DU145 = assay: Cell activity (cancer cell proliferation), DU145; type: cell-based; settings: Homo sapiens, DU-145
A549 = assay: Cell activity (cancer cell proliferation), A549; type: cell-based; settings: Homo sapiens
Kinetic solubility = type: physicochemical; settings: kinetic from dmso stock
[2] = Stability in mouse plasma; type: in vitro ADME; settings: read-out: Stability (t 1/2) Mouse plasma
[3] = Stability in mouse liver microsomes; type: in vitro ADME; settings: read-out: Stability (t 1/2) Mouse liver microsomes
Thermodynamic solubility = type: physicochemical; settings: thermodynamic from solid; Termodinamic
HeLa = assay: Cell activity (cancer cell proliferation), HeLa; type: cell-based; settings: Homo sapiens
MCF7 = assay: Cell activity (cancer cell proliferation), MCF7; type: cell-based; settings: Homo sapiens
A375 = assay: Cell activity (cancer cell proliferation), A375; type: cell-based; settings: Homo sapiens, A-375
G361 = assay: Cell activity (cancer cell proliferation), G361; type: cell-based; settings: Homo sapiens, G-361

**Q.** Which IC50 [1] does the source give for `Nc1cccc(Nc2nc(-c3ccncc3)nc3c2CNCC3)c1` [Example E2.3, N1-[2-(4-pyridyl)-5,6,7,8-tetrahydropyrido[4,3-d]pyrimidin-4-yl]benzene-1,3-diamine] here?
**A.** The IC50 was 150 ± 18 µM.

**Q.** And the IC50 (DU145)?
**A.** The IC50 was 85.2 µM.

**Q.** What about the IC50 (A549) of the same molecule?
**A.** Its IC50 is 513 µM.

**Q.** And the solubility kinetic (Kinetic solubility)?
**A.** The solubility kinetic was over 250 µM.

**Q.** What about the half-life [2] of the same molecule?
**A.** Its half-life is over 2 h.

**Q.** Which IC50 [1] does the source give for `Fc1cccc(Nc2nc(-c3ccncc3)nc3ccncc23)c1` [Example E4, N-(3-fluorophenyl)-2-(4-pyridyl)pyrido[4,3-d]pyrimidin-4-amine] here?
**A.** The IC50 was over 200 µM.

**Q.** With `CNc1cccc(Nc2nc(-c3ccncc3)nc3c2CNCC3)c1` [Example E2.4, N3-methyl-N1-[2-(4-pyridyl)-5,6,7,8-tetrahydropyrido[4,3-d]pyrimidin-4-yl]benzene-1,3-diamine] as the molecule, how does the IC50 [1] read?
**A.** Its IC50 is 160 ± 20 µM.

**Q.** What about the IC50 (DU145) of the same molecule?
**A.** Its IC50 is 45 µM.

**Q.** What about the IC50 (A549) of the same molecule?
**A.** Its IC50 is 61.9 µM.

**Q.** What about the solubility kinetic (Kinetic solubility) of the same molecule?
**A.** The solubility kinetic was over 250 µM.

**Q.** And the half-life [2]?
**A.** The half-life was over 2 h.

**Q.** For `CNc1cccc(Nc2nc(-c3ccncc3)nc3c2CC(N)CC3)c1` (stereo not drawn) [Example E1.7, N4-[3-(methylamino)phenyl]-2-(4-pyridyl)-5,6,7,8-tetrahydroquinazoline-4,6-diamine], which IC50 [1] is on record?
**A.** The IC50 was over 200 µM.

**Q.** And the IC50 (DU145)?
**A.** The IC50 was 24.5 µM.

**Q.** What about the IC50 (A549) of the same molecule?
**A.** Its IC50 is 33.4 µM.

**Q.** Which IC50 [1] does the source give for `CN(C)c1cccc(Nc2nc(-c3ccncc3)nc3c2CNCC3)c1` [Example E2.5, N3,N3-dimethyl-N1-[2-(4-pyridyl)-5,6,7,8-tetrahydropyrido[4,3-d]pyrimidin-4-yl]benzene-1,3-diamine] here?
**A.** Its IC50 is 140 ± 20 µM.

**Q.** And the IC50 (DU145)?
**A.** The IC50 was 42.5 µM.

**Q.** And the IC50 (A549)?
**A.** Its IC50 is 40.8 µM.

**Q.** And the solubility kinetic (Kinetic solubility)?
**A.** The solubility kinetic was over 250 µM.

**Q.** What about the half-life [2] of the same molecule?
**A.** The half-life was over 2 h.

**Q.** For `Fc1cccc(Nc2nc(-c3ccncc3)nc3ccccc23)c1` [Example E6, N-(3-fluorophenyl)-2-(4-pyridyl)quinazolin-4-amine], which “Activity Topo II IC50 (μM)” value [1] is on record?
**A.** Its value is “inactive”.

**Q.** With `NC1CCc2nc(-c3cccnc3)nc(Nc3cccc(F)c3)c2C1` (stereo not drawn) [Example E1.10, N4-(3-fluorophenyl)-2-(3-pyridyl)-5,6,7,8-tetrahydroquinazoline-4,6-diamine] as the molecule, how does the IC50 (DU145) read?
**A.** The IC50 was 25.4 µM.

**Q.** And the IC50 (A549)?
**A.** The IC50 was 21.3 µM.

**Q.** And the half-life [2]?
**A.** The half-life was over 2 h.

**Q.** Which results are given for `NC1CCc2nc(-c3ccncc3)nc(Nc3cccc(F)c3)c2C1` (stereo not drawn) [Example E1.1, N4-(3-fluorophenyl)-2-(4-pyridyl)-5,6,7,8-tetrahydroquinazoline-4,6-diamine]?
**A.** solubility kinetic (Kinetic solubility): > 250 µM; half-life [2]: > 2 h; half-life [3]: > 1 h

**Q.** What does the source list for `COc1cccc(Nc2nc(-c3ccncc3)nc3c2CC(N)CC3)c1` (stereo not drawn) [Example E1.5, N4-(3-methoxyphenyl)-2-(4-pyridyl)-5,6,7,8-tetrahydroquinazoline-4,6-diamine]?
**A.** IC50 (A549): 26.2 µM; solubility kinetic (Kinetic solubility): > 250 µM; half-life [2]: > 2 h

**Q.** With `NC1CCc2nc(-c3ccncc3)nc(Nc3ccc(F)cc3)c2C1` (stereo not drawn) [Example E1.8, N4-(4-fluorophenyl)-2-(4-pyridyl)-5,6,7,8-tetrahydroquinazoline-4,6-diamine] as the molecule, how does the solubility kinetic (Kinetic solubility) read?
**A.** The solubility kinetic was over 250 µM.

**Q.** What about the half-life [2] of the same molecule?
**A.** The half-life was over 2 h.

**Q.** For `CN(C)c1ccc(Nc2nc(-c3ccncc3)nc3c2CC(N)CC3)cc1` (stereo not drawn) [Example E1.11, N4-[4-(dimethylamino)phenyl]-2-(4-pyridyl)-5,6,7,8-tetrahydroquinazoline-4,6-diamine], which IC50 [1] is on record?
**A.** The IC50 was 3.5 ± 0.5 µM.

**Q.** And the solubility kinetic (Kinetic solubility)?
**A.** The solubility kinetic was over 250 µM.

**Q.** What about the solubility (Thermodynamic solubility) of the same molecule?
**A.** Its solubility is 452 µM (≈ 163 µg/mL).

**Q.** And the half-life [2]?
**A.** The half-life was over 2 h.

**Q.** What about the half-life [3] of the same molecule?
**A.** The half-life was over 1 h.

**Q.** Which results are given for `Nc1cccc(Nc2nc(-c3ccncc3)nc3c2CC(N)CC3)c1` (stereo not drawn) [Example E1.6, N4-(3-aminophenyl)-2-(4-pyridyl)-5,6,7,8-tetrahydroquinazoline-4,6-diamine]?
**A.** IC50 [1]: > 500 µM; IC50 (DU145): 37.4 µM; IC50 (A549): 75.9 µM

**Q.** Which IC50 [1] does the source give for `Nc1ccc2nc(-c3ccncc3)nc(Nc3cccc(F)c3)c2c1` [Example E3, N4-(3-fluorophenyl)-2-(4-pyridyl)quinazoline-4,6-diamine] here?
**A.** The IC50 was 80 ± 15 µM.

**Q.** And the IC50 (DU145)?
**A.** Its IC50 is 7.7 µM.

**Q.** And the IC50 (A549)?
**A.** The IC50 was 9.2 µM.

**Q.** And the IC50 (HeLa)?
**A.** The IC50 was 4.7 µM.

**Q.** And the IC50 (MCF7)?
**A.** The IC50 was 8.6 µM.

**Q.** What about the IC50 (A375) of the same molecule?
**A.** The IC50 was 8.3 µM.

**Q.** What about the IC50 (G361) of the same molecule?
**A.** The IC50 was 10.4 µM.

**Q.** And the solubility kinetic (Kinetic solubility)?
**A.** Its solubility kinetic is 17 µM (≈ 5.63 µg/mL).

**Q.** What about the solubility (Thermodynamic solubility) of the same molecule?
**A.** The solubility was 0.2 µM (≈ 0.0663 µg/mL).

**Q.** And the half-life [2]?
**A.** The half-life was 1.48 h.

**Q.** What about the half-life [3] of the same molecule?
**A.** The half-life was 0.367 h.

**Q.** For `Cc1cccc(Nc2nc(-c3ccncc3)nc3c2CC(N)CC3)c1` (stereo not drawn) [Example E1.4, N4-(m-tolyl)-2-(4-pyridyl)-5,6,7,8-tetrahydroquinazoline-4,6-diamine], which IC50 [1] is on record?
**A.** The IC50 was 200 ± 20 µM.

**Q.** What about the IC50 (DU145) of the same molecule?
**A.** Its IC50 is 12.3 µM.

**Q.** What about the IC50 (A549) of the same molecule?
**A.** Its IC50 is 14.4 µM.

**Q.** And the solubility kinetic (Kinetic solubility)?
**A.** Its solubility kinetic is 249 µM (≈ 82.5 µg/mL).

**Q.** What about the half-life [2] of the same molecule?
**A.** The half-life was over 2 h.

**Q.** With `Fc1ccccc1Nc1nc(-c2ccncc2)nc2c1CNCC2` [Example E2.7, N-(2-fluorophenyl)-2-(4-pyridyl)-5,6,7,8-tetrahydropyrido[4,3-d]pyrimidin-4-amine] as the molecule, how does the IC50 [1] read?
**A.** The IC50 was 4.5 ± 1 µM.

**Q.** What about the solubility kinetic (Kinetic solubility) of the same molecule?
**A.** Its solubility kinetic is over 250 µM.

**Q.** What about the solubility (Thermodynamic solubility) of the same molecule?
**A.** The solubility was 596 µM (≈ 192 µg/mL).

**Q.** What about the half-life [2] of the same molecule?
**A.** Its half-life is over 2 h.

**Q.** What about the half-life [3] of the same molecule?
**A.** Its half-life is 0.5 h.

**Q.** Which results are given for `NC1CCc2nc(-c3ccncc3)nc(Nc3ccc(O)cc3)c2C1` (stereo not drawn) [Example E1.9, 4-[[6-amino-2-(4-pyridyl)-5,6,7,8-tetrahydroquinazolin-4-yl]amino]phenol]?
**A.** IC50 [1]: > 500 µM; IC50 (DU145): 20.8 µM; IC50 (A549): 74.5 µM

**Q.** What does the source list for `N[C@@H]1CCc2nc(-c3ccncc3)nc(Nc3cccc(F)c3)c2C1` (single isomer, unassigned) [Example E1.2]?
**A.** solubility kinetic (Kinetic solubility): > 250 µM; half-life [2]: > 2 h

**Q.** Which IC50 [1] does the source give for `Oc1ccc(Nc2nc(-c3ccncc3)nc3c2CNCC3)cc1` [Example E2.6, 4-[[2-(4-pyridyl)-5,6,7,8-tetrahydropyrido[4,3-d]pyrimidin-4-yl]amino]phenol] here?
**A.** Its IC50 is 200 ± 15 µM.

**Q.** With `Fc1cccc(Nc2nc(-c3ccncc3)nc3c2CNCC3)c1` [Example E2.1, N-(3-fluorophenyl)-2-(4-pyridyl)-5,6,7,8-tetrahydropyrido[4,3-d]pyrimidin-4-amine] as the molecule, how does the IC50 [1] read?
**A.** Its IC50 is 25 ± 5 µM.

**Q.** What about the IC50 (DU145) of the same molecule?
**A.** The IC50 was 32.9 µM.

**Q.** What about the IC50 (A549) of the same molecule?
**A.** Its IC50 is 23.7 µM.

**Q.** What about the IC50 (HeLa) of the same molecule?
**A.** The IC50 was 32.3 µM.

**Q.** What about the IC50 (MCF7) of the same molecule?
**A.** The IC50 was 33.4 µM.

**Q.** What about the IC50 (A375) of the same molecule?
**A.** Its IC50 is 29.6 µM.

**Q.** And the IC50 (G361)?
**A.** The IC50 was 6.1 µM.

**Q.** And the solubility kinetic (Kinetic solubility)?
**A.** Its solubility kinetic is over 250 µM.

**Q.** And the solubility (Thermodynamic solubility)?
**A.** The solubility was 96 µM (≈ 30.9 µg/mL).

**Q.** What about the half-life [2] of the same molecule?
**A.** The half-life was over 2 h.

**Q.** What about the half-life [3] of the same molecule?
**A.** The half-life was 0.65 h.

**Q.** With `N[C@H]1CCc2nc(-c3ccncc3)nc(Nc3cccc(F)c3)c2C1` (single isomer, unassigned) [Example E1.3] as the molecule, how does the solubility kinetic (Kinetic solubility) read?
**A.** The solubility kinetic was over 250 µM.

**Q.** What about the half-life [2] of the same molecule?
**A.** Its half-life is over 2 h.

**Q.** Which results are given for `COc1cccc(Nc2nc(-c3ccncc3)nc3c2CNCC3)c1` [Example E2.2, N-(3-methoxyphenyl)-2-(4-pyridyl)-5,6,7,8-tetrahydropyrido[4,3-d]pyrimidin-4-amine]?
**A.** IC50 [1]: 120 ± 13 µM; IC50 (DU145): 25 µM; IC50 (A549): 35.3 µM; solubility kinetic (Kinetic solubility): > 250 µM; half-life [2]: > 2 h
